Some results are limits rather than exact numbers.

Broadly, the Ki is the equilibrium dissociation constant of an inhibitor or competing ligand from its target. The term IC50 denotes the concentration that gives 50% inhibition. Low readings indicate higher potency, high ones lower potency. Usually melting point stands for the temperature of the solid-liquid transition. The term IC20 denotes the concentration at which the effect reaches the 20% level. A lower IC20 goes with an effect from little substance. A word on the IC80: it is the point of the concentration-response curve where the effect stands at 80%. High values mean weaker potency, low ones greater potency.

The target of one data set is hH3R. The note with it: read-out: hH3R Ki; cited from earlier work.
The target of data set [1] is T1, human histamine H3 receptor (hH3R) (Homo sapiens, UniProt Q9Y5N1).
T1 construct: expressed in transfected cells
Kind of data set: radioligand displacement binding assay, [3H]Nα-methylhistamine, HEK293 cells stably expressing hH3R. The note with it: HEK293 cells stably expressing human H3R, mean (95% CI). Here is the method: [^3H]N^α-methylhistamine was used as a radioligand.
The radioligand displacement binding assay was carried out in HEK-293 cells stably expressing the recombinant hH3R as described by Kottke et al. with slight modifications. […] Obtained data from at least three experiments (in at least duplicates) were analyzed with GraphPad Prism 6.1 (San Diego, CA, USA) using nonlinear regression (one-site competition on logarithmic scale), and Ki values were transformed from IC50 according to Cheng-Prusoff. Statistical analysis was performed on −log Ki values.
Background: Displacement assays read how much labelled ligand stays bound in the presence of the test substance.

Data set [2] deals with T2, hMAO B (Homo sapiens, UniProt P27338).
T2 construct: purchased Sigma Aldrich M7441
T2 sequence (P27338 1-520): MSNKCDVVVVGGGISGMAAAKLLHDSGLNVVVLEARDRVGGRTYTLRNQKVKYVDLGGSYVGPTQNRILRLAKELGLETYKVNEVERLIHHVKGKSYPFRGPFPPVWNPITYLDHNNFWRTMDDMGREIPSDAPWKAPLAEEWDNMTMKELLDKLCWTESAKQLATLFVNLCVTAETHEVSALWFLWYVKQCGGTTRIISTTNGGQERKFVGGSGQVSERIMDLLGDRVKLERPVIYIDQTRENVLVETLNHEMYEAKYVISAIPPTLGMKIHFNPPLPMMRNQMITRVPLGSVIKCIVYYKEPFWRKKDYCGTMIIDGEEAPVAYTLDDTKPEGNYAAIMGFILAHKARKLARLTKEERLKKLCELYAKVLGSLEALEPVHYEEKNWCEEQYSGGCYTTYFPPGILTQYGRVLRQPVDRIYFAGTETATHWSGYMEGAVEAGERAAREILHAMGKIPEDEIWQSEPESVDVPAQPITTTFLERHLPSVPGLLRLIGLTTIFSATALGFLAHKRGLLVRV
Kind of data set: hMAO B inhibition, fluorometric Amplex Red MAO assay. It counts as biochemical. To be noted: for IC50: mean ± SEM of 2-5 independent experiments, p-tyramine 200 μM.

Data set [3] addresses T2, hMAO B. Kind of data set: hMAO B reversibility studies. It counts as biochemical. The note with it: inhibitor at IC80; for effect of 30 min preincubation with enzyme on hMAO B inhibition: with vs without preincubation; for type of hMAO B inhibition (reversible or irreversible): without preincubation, compared with safinamide and rasagiline. On the procedure:
Reversibility of MAO B inhibitors was tested as described previously with slight modification. Two experiments were performed simultaneously. In the first experiment, inhibitors (in concentrations corresponding to their IC80 values) were incubated with the enzyme and p-tyramine (10 μM) for 22 min (measuring fluorescence every two minutes).

A further data set addresses T3, human MAO A (Homo sapiens, UniProt P21397).
T3 construct: purchased Sigma Aldrich M7316
T3 sequence (P21397 1-527): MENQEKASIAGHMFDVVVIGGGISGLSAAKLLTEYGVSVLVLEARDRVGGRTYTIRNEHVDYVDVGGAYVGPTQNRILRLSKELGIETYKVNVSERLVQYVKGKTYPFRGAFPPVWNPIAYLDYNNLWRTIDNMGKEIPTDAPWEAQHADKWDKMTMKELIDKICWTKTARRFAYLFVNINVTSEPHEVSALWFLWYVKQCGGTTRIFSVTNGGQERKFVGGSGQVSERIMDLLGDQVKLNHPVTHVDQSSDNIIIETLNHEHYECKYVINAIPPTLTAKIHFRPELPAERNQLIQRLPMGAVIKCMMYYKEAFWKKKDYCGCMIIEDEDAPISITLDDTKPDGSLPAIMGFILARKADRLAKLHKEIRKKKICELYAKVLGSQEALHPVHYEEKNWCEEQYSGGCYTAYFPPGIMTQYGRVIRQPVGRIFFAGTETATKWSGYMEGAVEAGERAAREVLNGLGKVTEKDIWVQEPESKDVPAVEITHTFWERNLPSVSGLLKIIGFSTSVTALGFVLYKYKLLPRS
Kind of data set: hMAO A inhibition, fluorometric Amplex Red MAO assay. It is filed as biochemical. The note with it: for IC50: mean ± SEM, p-tyramine 200 μM; for inhibition at 10 µM: percent of inhibition at 10 μM, mean of two independent experiments, read-out: MAO A (%Inh.). Here is the method:
Inhibitory potency of compounds on MAO isoenzymes were carried out by a fluorometric method with a commercial Amplex™ Red Monoamine Oxidase Assay Kit (ThermoFisher Scientific A12214, Waltham, MA, USA) as described previously. For all tests, recombinant human MAO B and MAO A (from Sigma AldrichM7441 and M7316, Darmstadt, Germany) were used. Inhibitors’ activity was measured in the presence of p-tyramine (200 μM).
[…] […] All calculations were made in Microsoft Excel and GraphPadPrism software. All experiments were performed in duplicate, and data are expressed as mean ± SEM of 2–5 independent experiments.

In data set [4] the target is T2, hMAO B. Kind of data set: hMAO B kinetic studies (Michaelis-Menten, Lineweaver-Burk). It counts as biochemical. On the procedure:
Results from the kinetic experiment were used for determination of Michaelis–Menten curves (Figure 4A,C). […] From Michaelis–Menten curves, Vmax and KM values were fitted (Table 2). For both compounds, Vmax values decreased curvilinearly and KM values increased curvilinearly with the increased inhibitor concentrations.
The mode of the inhibition was tested according to the standard procedure described in Reversibility Studies using different concentrations of the substrate. […] Substrate was used in six concentrations: […], 0.1 mM, 0.5 mM, 1 mM, 1.5 mM, and 2 mM. After the experiment, velocities were calculated and put on the graph (y-axis) against the concentration of the substrate (x-axis). From the Michaelis–Menten plot Vmax, KM, and α values were calculated for different concentrations of the inhibitor. Double-reciprocal plot (Lineweaver–Burk plot) were prepared to display the data.
The α values for different modes of reversible inhibition as well as their diagnostic signature on […]
The α value for compound 9 was calculated by GraphPad Prism software from the nonlinear regression curves using following equation for mixed- […]
v = Vmax*[S] / [S]*(1+ [I]/ αKi) + KM*(1+ [I]/Ki) (1) v – velocity of enzyme reaction. Vmax - maximum velocity (at infinite substrate concentration); Ki – dissociation constant for Enzyme-Inhibitor complex (in the enzymology literature other symbols can be used such as: Ki, Kii , KEI etc.); αKi – dissociation constant for Enzyme-Substrate-Inhibitor complex (in the literature also under the symbols: Ki’, Kis and KES); KM – Michaelis-Menten constant; [I]– concentration of the inhibitor; [S] – concentration of the substrate [Ref S1].
Table S1. Relation between inhibition modality, α value, and diagnostic signature on the double-reciprocal plots (i.e Lineweaver-Burk plot) [S2].
α Inhibition modality Diagnostic signature on […]
α = 1 (inhibitor binds to free enzyme lines converge at the x-axis and enzyme-substrate complex
(inhibitor can bind to free lines converge to the left of the α > 1 enzyme and enzyme-substrate y-axis and above the x-axis complex unequally), inhibitor’s affinity is higher for free enzyme
(inhibitor can bind to free
α < 1 enzyme and enzyme-substrate lines converge to the left of the complex unequally), inhibitor’s y-axis and below the x-axis affinity is higher for the enzyme- […]
α → ∞ (inhibitor and substrate compete lines converge at the y-axis for the same site of binding) […]
α → 0 and α > 0 (inhibitor binds only to the parallel lines

Setting [5] is: concentration used in kinetic studies.

T1 sequence (Q9Y5N1 whole entry): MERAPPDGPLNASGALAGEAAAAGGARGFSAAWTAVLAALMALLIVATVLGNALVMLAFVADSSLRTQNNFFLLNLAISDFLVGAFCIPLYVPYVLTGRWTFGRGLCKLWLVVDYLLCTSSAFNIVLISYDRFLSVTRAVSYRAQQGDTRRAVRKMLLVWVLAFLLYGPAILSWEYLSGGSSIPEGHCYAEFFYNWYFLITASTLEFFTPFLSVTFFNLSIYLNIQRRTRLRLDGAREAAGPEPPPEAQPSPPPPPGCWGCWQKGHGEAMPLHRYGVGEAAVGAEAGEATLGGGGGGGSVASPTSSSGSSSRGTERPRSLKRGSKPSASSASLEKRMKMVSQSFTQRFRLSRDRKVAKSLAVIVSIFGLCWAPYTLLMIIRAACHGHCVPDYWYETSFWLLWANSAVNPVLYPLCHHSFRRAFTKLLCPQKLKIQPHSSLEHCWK

On to `C#CCNC1CCc2cc(OCCCN3CCCCC3)ccc21` (stereo not drawn) [Compound 1], for which the Ki on hH3R was 0.0067 µM.

As to `O=C1/C(=C/c2ccc(OCCCN3CCCCC3)cc2)Cc2cc(OCc3ccc(Br)cc3)ccc21` [Compound 2], the inhibition constant (Ki) on hH3R is 0.0065 µM.

As for `CCC(C)(C)c1ccc(OCCCN2CCCC2)cc1` [Compound 3], the Ki on hH3R is 0.063 µM.

`CC(C)(C)c1ccc(OCCCN2CCCC2)cc1.O=C(O)C(=O)O` [Compound 5, 1-(3-(4-tert-Butylphenoxy)propyl)pyrrolidine hydrogen oxalate] registered a melting point of 147 to 149 °C. For the same compound, the Ki in data set [1] was determined as 371 nM. Moreover, the midpoint of inhibition at hMAO B [2], the IC50, lay at 0.0027 ± 0.0004 µM. Moreover, at hMAO B [3], the “effect of 30 min preincubation with enzyme on hMAO B inhibition” value (from here on “effect … on hMAO B inhibition”) is “did not show differences between experiments with and without the preincubation”; the “type of hMAO B inhibition (reversible or irreversible)” value is recorded as “reversible”.

Consider `CC(C)(C)c1ccc(OCCCCN2CCCCC2)cc1.O=C(O)C(=O)O` [Compound 6, 1-(4-(4-tert-Butylphenoxy)butyl)piperidine hydrogen oxalate], for which the melting point is 150 to 152 °C. The compound further came in with a Ki in data set [1] of 309 nM. Further, inhibition against hMAO B [2] was half-maximal at 0.29 ± 0.007 µM (IC50). For the same compound, the IC50 against human MAO A was more than 10 µM.

On to `CC1CCCCN1CCCOc1ccc(C(C)(C)C)cc1.O=C(O)C(=O)O` (stereo not drawn) [Compound 9, 1-(3-(4-tert-Butylphenoxy)propyl)-2-methylpiperidine hydrogen oxalate], for which the melting point is 114 to 116 °C. In data set [1], the Ki amounted to 69 nM. Besides, at hMAO B [2] (setting [5]), the 20% effect level (IC20) was put at 0.0002 µM and the 80% effect level (IC80) was put at 0.04 µM. This compound also showed an IC50 on hMAO B [2] of 0.011 ± 0.001 µM. In addition, the IC50 against human MAO A is more than 10 µM. At hMAO B [3], the “effect … on hMAO B inhibition” value was “did not show differences between experiments with and without the preincubation”; the “type of hMAO B inhibition (reversible or irreversible)” value is reported as “reversible”. In addition, the “constant α” value at hMAO B [4] (calculated by GraphPad Prism from nonlinear regression, mixed-model inhibition) is given as 1.6. Besides, the “mode of hMAO B inhibition” value at hMAO B [4] (from Vmax and KM behaviour and Lineweaver-Burk plot) is given as “mixed mode inhibition”. The “Vmax (RFU/min)” value at hMAO B [4] (inhibitor concentration 0.2 nM) worked out at 1652 RFU/min. Moreover, the “Vmax (RFU/min)” value at hMAO B [4] (inhibitor concentration 10 nM) worked out at 1544 RFU/min. Besides, the “Vmax (RFU/min)” value on hMAO B [4] (inhibitor concentration 40 nM) is 1238 RFU/min.

In turn, `CC1CCCCN1CCCCOc1ccc(C(C)(C)C)cc1.O=C(O)C(=O)O` (stereo not drawn) [Compound 10, 1-(4-(4-tert-Butylphenoxy)butyl)-2-methylpiperidine hydrogen oxalate] showed a melting point of 107 to 110 °C. For the same compound, in data set [1], the Ki was 153 nM. Besides, at hMAO B [2], half-maximal inhibition (IC50) required 0.475 ± 0.038 µM. This compound also gave an IC50 on human MAO A of more than 10 µM.

As for `CC1CCCN(CCCOc2ccc(C(C)(C)C)cc2)C1.O=C(O)C(=O)O` (stereo not drawn) [Compound 12, 1-(3-(4-tert-Butylphenoxy)propyl)-3-methylpiperidine hydrogen oxalate], the melting point lay within 141 to 143 °C. Further, the Ki in data set [1] is 98 nM. 0.117 ± 0.012 µM corresponded to half-maximal inhibition against hMAO B [2] (IC50). Besides, the IC50 against human MAO A is more than 10 µM.

In turn, `CC1(C)CCCN(CCCOc2ccc(C(C)(C)C)cc2)C1.O=C(O)C(=O)O` [Compound 16, 1-(3-(4-tert-Butylphenoxy)propyl)-3,3-dimethylpiperidine hydrogen oxalate] had a melting point of 183 to 186 °C. In data set [1], this compound returned a Ki of 1620 nM. For the same compound, the IC50 against hMAO B [2] came to 0.476 ± 0.038 µM. Also, the IC50 on human MAO A was more than 10 µM.

`CC1(C)CCCN(CCCCCOc2ccc(C(C)(C)C)cc2)C1.O=C(O)C(=O)O` [Compound 18, 1-(5-(4-tert-Butylphenoxy)pentyl)-3,3-dimethylpiperidine hydrogen oxalate] had a melting point of 150 to 153 °C. This compound also came in with an inhibition constant Ki in data set [1] of 3540 nM. For the same compound, on human MAO A, the IC50 was more than 10 µM and the inhibition at 10 µM was determined as 19%.

Turning to `CC1(C)CCCN(CCCCCCOc2ccc(C(C)(C)C)cc2)C1.O=C(O)C(=O)O` [Compound 19, 1-(6-(4-tert-Butylphenoxy)hexyl)-3,3-dimethylpiperidine hydrogen oxalate], the melting point was in the range of 122 to 125 °C. Further, the Ki in data set [1] amounted to 2580 nM. Besides, at human MAO A, the half-inhibitory concentration (IC50) is more than 10 µM and the inhibition at 10 µM worked out at 24%.

The compound `CC(C)(C)c1ccc(OCCCN2CCCCCC2)cc1.O=C(O)C(=O)O` [Compound 28, 1-(3-(4-tert-Butylphenoxy)propyl)-azepane hydrogen oxalate] displayed a melting point of 138 to 140 °C. Also, in data set [1], the inhibition constant Ki was determined as 111 nM. In addition, the IC50 against hMAO B [2] was determined as 0.045 ± 0.004 µM. This compound returned an IC50 on human MAO A of more than 10 µM.

Take `CC(C)(C)c1ccc(OCCCCN2CCCCCC2)cc1.O=C(O)C(=O)O` [Compound 29, 1-(4-(4-tert-Butylphenoxy)butyl)-azepane hydrogen oxalate]: the melting point lay within 149 to 151 °C. Moreover, the Ki in data set [1] is 299 nM. On human MAO A, the IC50 was more than 10 µM and the inhibition at 10 µM was determined as 23%.

As to `C[C@H](NCc1ccc(OCc2cccc(F)c2)cc1)C(N)=O` [safinamide, reference compound], the “effect … on hMAO B inhibition” value at hMAO B [3] was “did not show differences between experiments with and without the preincubation”.

The values are drawn from paper PMC7279487, “Dual Target Ligands with 4-tert-Butylphenoxy Scaffold as Histamine H3 Receptor Antagonists and Monoamine Oxidase B Inhibitors” (International Journal of Molecular Sciences, 2020).
